Patent US12528760B2 (DOMPÉ FARMACEUTICI S.P.A., priority 2019, dated 2026)
Converted amounts (≈) assume the structure as drawn.

Experiment: Solubility of Lysine in 2-Methyl-1-propanol
Assay type: physicochemical
Conditions: organic solvent or mixture

## NCCCC[C@H](N)C(=O)O [Lysine]
  solubility: ~26 mg/mL (≈ 178 mM)
